Data from patent US8822535B2 (priority 2005, dated 2014).
Several values for one entry are separate records, joined by “and”; a condition that tells them apart may be missing. Equal entries are not always repeated. Where two headings read alike, the source gives them in different places.

Key:
[1] = test system: mice; conditions: mouse, in vivo; for effect on body (subcutaneous) temperature / effective dose (to lower subcutaneous temperature): sc
[2] = test system: Drosophila melanogaster; assay: Anoxia tolerance of Drosophila melanogaster after CO2 / H2S treatment; assay type: in vivo
[3] = test system: Drosophila melanogaster; assay: as above; assay type: in vivo; conditions: adult flies
Experimental: Adult flies were introduced into 35 mL tubes made of glass with a gas-tight rubber stopper (Balsh tubes). This was usually accomplished by anesthetizing flies with CO2, moving groups of flies to vials with food to recover for at least 2 hours, and then transferring them into the Balsh tube. To exchange the gaseous environment in the Balsh tube, two 18 gauge needles were inserted into the rubber stopper, and gas is blown into one of the needles at 100 mL/min. To prevent dessication, gasses were humidified by bubbling through 10 mL of water before passing it through the Balsch tube. The water in the bubbler is equilibrated with the gas for at least 20 minutes before starting the experiment.
For “stopped-flow” experiments, gas exchange proceeded for 60 minutes before sealing the tube. For “low-flow” experiments, gas flow continued throughout the experiment. CO2 was from the house source (100%), and anoxic environments were established by flushing out room air with 100% nitrogen (N2). Care was taken to prevent introduction of room air into the system while switching the atmosphere from CO2 to N2.
After anoxic treatment, oxygen was reintroduced into the Balsh tube by flushing with house air for 20 minutes. The rubber stopper was then removed and a food vial is inverted over the top of the Balsh tubes with Parafilm. […] Viability was scored at least 18 hours after the end of anoxic treatment. After two weeks, if the food vials contained larvae and/or pupae the flies were considered to be fertile.

[4] = test system: dogs; assay: Gas matrix: metabolic flexibility in altered gas environments, dogs; assay type: in vivo, dog; conditions: 9%
Experimental: (§1) Metabolic flexibility was evaluated in mice rats and dogs using altered gas environments. Three parameters were used to define this reduction in metabolism including changes in carbon dioxide production, oxygen consumption measured by respirometry, and core temperature as measured using telemetry. In experiments with mice and rats the animals were placed into sealed chambers with one gas import and one gas export. For dogs a mask was placed over the snout of the animal with two hoses (import and export) attached to the mask. The flow rate of gas for each of the animals mice—500 cc per minute, rats—2 liters per minute, and dogs 40 liters per minute. Each atmosphere was constructed from compressed gas by dilution into room air unless otherwise noted. For rat and mouse experiments the ambient temperature was 7 to 10° C. during exposure to the test gases. For dogs ambient temperature was room temperature (22° C.).
(§2) Evidence of depression in metabolic rate of greater than 5-fold as judged by carbon dioxide production or oxygen consumption during a 6-hour treatment is described by “Yes”; […]; “N/D” denotes experiments not done. The temperature drop in the dog experiment (Carbon dioxide+low oxygen+Helium) was approximately 1.5° C. over the course of 30 minutes of exposure. This drop in temperature was considered significant because the dog was 12 kg and no such temperature drop was seen during extensive baseline recording of the animal in room air.

[5] = test system: rats; assay: Gas matrix: metabolic flexibility in altered gas environments, rats; assay type: in vivo, rat; conditions: ambient 7 to 10° C., 6-hour treatment
Experimental: as §1, §2

[6] = test system: mice; assay: Gas matrix: metabolic flexibility in altered gas environments, mice; assay type: in vivo, mouse; conditions: for depression in metabolic rate, Mouse: ambient 7 to 10° C., 6-hour treatment
Experimental: as §1, §2

[7] = cited from earlier work
[8] = test system: nematodes (C. elegans); assay: Nematode lethal hypothermia screening assay; assay type: in vivo; conditions: carbon monoxide atmosphere at room temperature prior to 4 degrees C. for 16 hrs
Description: A screening assay was established using nematodes (C. elegans). […] Worms were exposed for X minutes at room temperature to an atmosphere containing Y % carbon monoxide, prior to exposing them to 4 degrees C. for 16 hrs. […] Since carbon monoxide is a known stasis inducer in nematodes and neonatal human foreskin keratinocytes, the nematode assay is capable of identifying stasis inducing compounds as such by their ability to increase the survivability of worms exposed to lethal hypothermia when the worms are pre-equilibrated in the stasis inducer or other active compound.

[9] = test system: human foreskin keratinocytes; assay type: cell-based
[10] = test system: C. elegans embryos
[11] = test system: mice; assay type: in vivo, mouse
[12] = previously reported in the literature; cited from earlier work
[13] = test system: mice; set-up: species or system mouse (C57BL/6); conditions: mouse, in vivo; for survival in lethal hypoxia: sc
[14] = 100 ppb H2Se, less than 10 minutes (FIG. 26)

## OCCS [2-mercapto-ethanol]
[1]
  toxicity: toxic at the effective temperature reducing dose
  effect on body (subcutaneous) temperature: reduced body temperature

## SCCOCCS [2-mercaptoethyl ether]
[1]
  toxicity: toxic at the effective temperature reducing dose
  effect on body (subcutaneous) temperature: reduced body temperature

## O=C=O [CO2, carbon dioxide]
[2]; adult flies, CO2 then N2 with bubbler water not equilibrated with N2, 13 h anoxic exposure
  survival: no flies survived
[2]; larvae, pretreated, 24.5 h anoxia
  movement upon reoxygenation: can resume movement
[2]; pool of 0-19 h old embryos, CO2 10 min pretreatment, anoxia 24 h
  pupae formed: 20 pupae
[3]; 100% CO2 pretreatment 30 minutes, 19 h anoxic exposure, stopped-flow
  survival: 54%
[3]; 100% CO2 pretreatment 90 minutes, 19 h anoxic exposure, stopped-flow
  survival: 28%
[3]; 10 min CO2 pretreatment, 17, 22, and 24 h of anoxia, low-flow
  survival: no survival was observed
[3]; CO2 10 minutes before 20 h anoxic exposure, low-flow (no H2S)
  survival: 6%
[3]; CO2 pretreatment and CO2 for 20 minutes immediately following anoxic exposure
  survival: no flies survived
[4]; mask, room temperature (22° C.)
  depression in metabolic rate, Dog: No 9% (“No” (reduction or less than a 5-fold reduction in these values is described as such)
[4]; dog, 12% and 15% carbon dioxide in room air (FIG. 40)
  core body temperature (CBT): A similar drop
[5]; 15%
  depression in metabolic rate, Rat: Yes 15% (Evidence of depression in metabolic rate of greater than 5-fold as judged by carbon dioxide production or oxygen consumption during a 6-hour treatment is described by “Yes”)
[6]; 15%
  depression in metabolic rate, Mouse: Yes 15% (Evidence of depression in metabolic rate of greater than 5-fold as judged by carbon dioxide production or oxygen consumption during a 6-hour treatment is described by “Yes”)
[6]; mice, 15% CO2
  control of metabolic flexibility: affords control of metabolic flexibility
  tidal volume and respiration rate: tidal volume increases but respiration rate remains unchanged

## [C-]#[O+] [CO, carbon monoxide]
[7]; 50 ppm
  symptoms: no symptoms
[7]; 200 ppm, within two-three hours
  symptoms: slight headache
[7]; 400 ppm, within one to two hours
  symptoms: frontal headache
[7]; 800 ppm, within 45 minutes
  symptoms: dizziness, nausea, and/or convulsions
[7]; around 1000 ppm, exposure for more than around 1-2 minutes
  lethality: can expire
[8]
  survival after exposure to cold: survived with high viability
[3]; treated only with CO for 10 min before the anoxic exposure (18.5 h)
  survival: 11%
[9]
  # cells recovered: 167
  Total colonies: 542 colonies (many of which were very and 780 colonies (many of which were very
  dead (tb+), SUM: 61
  fraction alive: 0.91 and 0.50 and 0.77 and 0.83 and 0.54 and 0.80
  fraction alive, SUM: 0.63
  growth of keratinocyte populations: significant growth
  live (tb−), SUM: 106
  survival of skin cells relative to room air: 100 fold
[10]; 100% carbon monoxide, 24 hr, room temperature
  lethality and suspended animation: not lethal and induced reversible suspended animation
[10]; 500 ppm oxygen balanced with carbon monoxide, 24 hr
  survival: entered into suspended animation and survived
[10]; hif-1(ia04) embryos, 0.25 kPa O2/CO, 24 hrs
  survival to adulthood: 83.9% ± 13.8
[10]; hif-1(ia04) embryos, 0.25 kPa O2/CO, 24 hrs, listed as carbon monoxide
  survival to adulthood: 84.0%
[10]; wild-type (N2) embryos, 0.25 kPa O2/CO, 24 hrs
  survival to adulthood: 78.7% ± 21.9
[10]; wild-type (N2) embryos, 0.25 kPa O2/CO, 24 hrs, listed as carbon monoxide
  survival to adulthood: 78.7%
[10]; wild-type embryos, 0.05 kPa O2 balanced with carbon monoxide, 24 hrs
  viability to adulthood: 96.2%
[10]; wild-type embryos, 101 kPa CO (100% CO), 24 hrs
  survival to adulthood: 81.5%

## [SeH2] [H2Se, hydrogen selenide]
[11]; 10 ppb of H2Se (FIG. 27)
  core body temperature and respiration: reduction in core body temperature and respiration
[11]; [14]
  core body temperature: drop in core body temperature
  reduction in metabolic activity as evidenced by respiration: 3 fold
[11]; tests used to evaluate reversibility with H2S
  reversibility of effects: fully reversible
[12]
  concentration lethal to animals: greater than 1 ppm
[5]; 0.003% in room air
  depression in metabolic rate, Rat: Yes 0.003% (Evidence of depression in metabolic rate of greater than 5-fold as judged by carbon dioxide production or oxygen consumption during a 6-hour treatment is described by “Yes”)
[6]; 0.0001% in room air
  depression in metabolic rate, Mouse: Yes 0.0001% (Evidence of depression in metabolic rate of greater than 5-fold as judged by carbon dioxide production or oxygen consumption during a 6-hour treatment is described by “Yes”)
[6]; mouse, 1.2 ppm of H2Se, 2 hours and 10 minutes, 5° C. ambient (FIG. 34)
  core body temperature (CBT): significant drop in CBT

## CC(=O)N[C@@H](CS)C(=O)O [N-acetyl-L-cysteine]
[1]
  effect on body (subcutaneous) temperature: did not reduce subcutaneous temperature

## CC(O)=S [Thioacetic acid]
[1]
  effect on body (subcutaneous) temperature: reduced body temperature
[13]
  protection from lethal hypoxia: did not enhance survival in hypoxia

## NCCS [cysteamine]
[1]
  effective dose (to lower subcutaneous temperature): 7.58 mmol/kg
[13]
  survival in lethal hypoxia: 45 min

## CSC [dimethyl sulfide]
[1]
  effect on body (subcutaneous) temperature: did not reduce subcutaneous temperature

## NCCCNCCSP(=O)(O)O [phosphorothioic acid S-(2-((3-aminopropyl)amino)ethyl) ester]
[1]
  effect on body (subcutaneous) temperature: reduced body temperature
[13]
  protection from lethal hypoxia: did not enhance survival in hypoxia

## N=C(N)[SeH] [selenourea]
[1]
  effect on body (subcutaneous) temperature: reduced body temperature
[13]
  protection from lethal hypoxia: did not enhance survival in hypoxia

## CS(=O)[O-].[Na+] [sodium methane sulfinate]
[1]
  effect on body (subcutaneous) temperature: did not reduce subcutaneous temperature

## [SeH2] [sodium selenide]
[1]
  effect on body (subcutaneous) temperature: did not reduce subcutaneous temperature

## N#C[S-].[Na+] [sodium thiocyanate]
[1]
  effective dose (to lower subcutaneous temperature): 4.67 mmol/kg

## C[S-].[Na+] [sodium thiomethoxide]
[1]
  effective dose (to lower subcutaneous temperature): 4.61 mmol/kg
[13]
  survival in lethal hypoxia: 60 min

## OC1CCSCC1 [tetrahydrothiopyran-4-ol]
[13]
  survival in lethal hypoxia: 15 min

## O=C(O)CS [thioglycolic acid]
[1]
  toxicity: toxic at the effective temperature reducing dose
  effect on body (subcutaneous) temperature: reduced body temperature
